According to ChEMBL document CHEMBL6177981, “Bardoxolone Derivatives as Novel Pseudo-Natural Necroptosis Inhibitors by Destabilizing HSP90 Client Proteins” (J Med Chem, 2025):
Activity calls are given as the source filed them. No cut-off for these calls is given here.

Tests used:
[1] = Acute toxicity in male C57BL/6J mouse assessed as inflammatory cell infiltration in kidney at 2 g/Kg, IG measured after 72 hrs by H and E staining based analysis; format: tissue-based; settings: in vivo, po, 2000 mg/kg
[2] = Acute toxicity in male C57BL/6J mouse assessed as hemorrhage in kidney at 2 g/Kg, IG measured after 72 hrs by H and E staining based analysis; format: tissue-based; settings: in vivo, po, 2000 mg/kg
HT-29 [3] = test: Downregulation of RIPK1 protein level in human HT-29 cells at 3 to 6 uM incubated for 9 hrs by Western blot analysis; format: functional, cell-based; settings: dose 3-6 µM
[4] = Acute toxicity in male C57BL/6J mouse assessed as survival at 2 g/Kg, po measured within 72 hrs relative to control; format: organism-based; settings: in vivo, 2000 mg/kg
HT-29 [5] = test: Anti-necroptotic activity in TSZ-induced human HT-29 cells assessed as increase in cell viability preincubated with Z-VAD-FMK and SM164 for 30 mins followed by TNFalpha stimulation for 12 hrs and measured after compound addition by CellTiter-Lumi luminescent cell viability assay; format: functional, cell-based
Mus musculus [6] = test: (§1) Anti-necroptotic activity in TNFalpha/Z-VAD-FMK induced SIRS male C57BL/6J mouse model assessed as reduction in IL6 in liver at 5 to 10 mg/kg, po pre-administered with compound via gavage for 2 hrs followed by […] of Z-VAD-FMK stimulation for 15 mins with subsequent TNF-alpha stimulation for 1 hrs and re-current […] of Z-VAD-FMK stimulation and measured after 8 hrs post SIRS induction by ELISA; format: functional, organism-based; settings: dose 5-10 mg/kg, time 10.0 hrs
[7] = Acute toxicity in male C57BL/6J mouse assessed as structural changes in heart at 2 g/Kg, IG measured after 72 hrs by H and E staining based analysis; format: tissue-based; settings: in vivo, po, 2000 mg/kg
[8] = Acute toxicity in male C57BL/6J mouse assessed as hemorrhage in stomach at 2 g/Kg, IG measured after 72 hrs by H and E staining based analysis; format: tissue-based; settings: in vivo, po, 2000 mg/kg
HT-29 [9] = test: Effect on RIPK3 protein level in human HT-29 cell precipitate at 6 uM measured after 9 hrs by Western blot analysis; format: functional, cell-based
[10] = Tmax in Sprague-Dawley rat at 10 mg/kg, IG measured after 24 hrs by LC-MS/MS analysis; format: ADME, organism-based; settings: in vivo, po
[11] = biological target: T1, Receptor-interacting serine/threonine-protein kinase 1 (Homo sapiens) (UniProt Q13546); test: Inhibition of RIPK1 phosphorylation in TSZ-induced human HT-29 cells at 10 uM preincubated with compound followed by Z-VAD-FMK, SM164 and TNFalpha stimulation and measured within 6 hrs by Western blot analysis relative to control; format: cell-based
T1 sequence (whole entry): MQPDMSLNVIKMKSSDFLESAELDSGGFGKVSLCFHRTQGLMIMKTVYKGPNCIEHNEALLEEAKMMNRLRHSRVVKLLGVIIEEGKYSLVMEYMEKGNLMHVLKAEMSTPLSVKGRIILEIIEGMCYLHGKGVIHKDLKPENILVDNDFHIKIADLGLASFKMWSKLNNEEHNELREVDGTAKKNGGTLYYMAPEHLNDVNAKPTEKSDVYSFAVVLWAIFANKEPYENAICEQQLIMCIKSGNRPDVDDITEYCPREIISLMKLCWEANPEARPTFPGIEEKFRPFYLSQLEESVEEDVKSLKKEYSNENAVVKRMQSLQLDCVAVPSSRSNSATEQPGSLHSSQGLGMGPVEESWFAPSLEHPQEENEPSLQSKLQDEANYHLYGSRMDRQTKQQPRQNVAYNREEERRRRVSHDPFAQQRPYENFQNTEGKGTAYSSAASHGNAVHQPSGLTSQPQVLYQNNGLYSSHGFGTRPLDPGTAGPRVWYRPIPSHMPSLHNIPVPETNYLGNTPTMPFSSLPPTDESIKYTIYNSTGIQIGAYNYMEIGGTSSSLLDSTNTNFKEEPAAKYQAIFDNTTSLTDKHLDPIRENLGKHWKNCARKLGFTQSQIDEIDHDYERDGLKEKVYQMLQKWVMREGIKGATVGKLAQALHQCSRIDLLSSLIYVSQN

[12] = Acute toxicity in male C57BL/6J mouse assessed as inflammatory cell infiltration in intestine at 2 g/Kg, IG measured after 72 hrs by H and E staining based analysis; format: tissue-based; settings: in vivo, po, 2000 mg/kg
[13] = Acute toxicity in male C57BL/6J mouse assessed as hemorrhage in brain at 2 g/Kg, IG measured after 72 hrs by H and E staining based analysis; format: tissue-based; settings: in vivo, po, 2000 mg/kg
HT-29 [14] = test: Downregulation of RIPK1 protein level in human HT-29 cells at 6 uM preincubated with Z-VAD-FMK for 2 hrs followed by compound addition and measured after 9 hrs by Western blot analysis; format: functional, cell-based
Mus musculus [15] = test: as §1, with “spleen” for “liver”; format: functional, organism-based; settings: dose 5-10 mg/kg, time 10.0 hrs
[16] = Acute toxicity in male C57BL/6J mouse assessed as hemorrhage in liver at 2 g/Kg, IG measured after 72 hrs by H and E staining based analysis; format: tissue-based; settings: in vivo, po, 2000 mg/kg
Mus musculus [17] = test: as §1, with “IL-1beta” for “IL6”, “lung” for “liver”; format: functional, organism-based; settings: dose 5-10 mg/kg, time 10.0 hrs
HeLa [18] = test: Inhibition of MLKL protein expression in RIPK3-deficient human HeLa cells at 6 uM preincubated with MG132 for 2 hrs followed by compound addition and measured after 9 hrs by Western blot analysis; format: functional, cell-based
HT-29 [19] = test: Anti-necroptotic activity in TSZ-induced human HT-29 cells assessed as increase in cell viability at 2.5 uM preincubated with compound followed by Z-VAD-FMK, SM164 and TNFalpha addition and measured after 12 hrs by CellTiter-Lumi luminescent cell viability assay relative to control; format: functional
[20] = Acute toxicity in male C57BL/6J mouse assessed as structural changes in spleen at 2 g/Kg, IG measured after 72 hrs by H and E staining based analysis; format: tissue-based; settings: in vivo, po, 2000 mg/kg
Mus musculus [21] = test: as §1, with “lung” for “liver”; format: functional, organism-based; settings: dose 5-10 mg/kg, time 10.0 hrs
HT-29 [22] = test: Downregulation of MLKL protein level in human HT-29 cells at 6 uM preincubated with NH4Cl for 2 hrs followed by compound addition and measured after 9 hrs by Western blot analysis; format: functional, cell-based
HeLa [23] = test: Inhibition of MLKL protein expression in RIPK3-deficient human HeLa cells at 0.75 to 6 uM incubated for 9 hrs by Western blot analysis; format: functional, cell-based; settings: dose 0.75-6 µM
[24] = Acute toxicity in male C57BL/6J mouse assessed as structural changes in kidney at 2 g/Kg, IG measured after 72 hrs by H and E staining based analysis; format: tissue-based; settings: in vivo, po, 2000 mg/kg
HT-29 [25] = test: Upregulation of HSP70 protein level in TSZ-induced human HT-29 cells at 0.625 to 10 uM preincubated with compound followed by Z-VAD-FMK, SM164 and TNFalpha stimulation and measured after 6 hrs by Western blot analysis; format: functional, cell-based; settings: dose 0.625-10 µM

For Cn1ccc(-c2ccc(NC(=O)[C@]34CCC(C)(C)C[C@H]3[C@H]3C(=O)C=C5[C@@]6(C)C=C(C#N)C(=O)C(C)(C)[C@@H]6CC[C@@]5(C)[C@]3(C)CC4)cc2)n1, which Activity [1] is on record?
The Activity was “Non-toxic”.

And the Activity [2]?
Its Activity is “Non-toxic”.

And the Activity (HT-29 [3])?
Its Activity is “Active; Significant Effect Observed”.

What about the survival at 72 h [4] of the same molecule?
Its survival at 72 h is 100%.

And the EC50 (HT-29 [5])?
Its EC50 is 1380 nM.

And the Activity (Mus musculus [6])?
The Activity was “Active”.

And the Activity [7]?
The Activity was “Non-toxic”.

What about the Activity [8] of the same molecule?
Its Activity is “Non-toxic”.

And the Activity (HT-29 [9])?
The Activity was “inactive”.

What about the Tmax [10] of the same molecule?
The Tmax was 14 h.

And the inhibition [11]?
Its inhibition is 100%.

And the Activity [12]?
The Activity was “Non-toxic”.

And the Activity [13]?
The Activity was “Non-toxic”.

What about the Activity (HT-29 [14]) of the same molecule?
Its Activity is “Active”.

And the Activity (Mus musculus [15])?
Its Activity is “Active”.

And the Activity [16]?
The Activity was “Non-toxic”.

What about the Activity (Mus musculus [17]) of the same molecule?
Its Activity is “Active”.

What about the inhibition (HeLa [18]) of the same molecule?
The inhibition was “Active”.

What about the Activity (HT-29 [19]) of the same molecule?
Its Activity is 100%.

What about the Activity [20] of the same molecule?
The Activity was “Non-toxic”.

What about the Activity (Mus musculus [21]) of the same molecule?
Its Activity is “Active”.

What about the Activity (HT-29 [22]) of the same molecule?
The Activity was “Active”.

And the inhibition (HeLa [23])?
Its inhibition is “Active”.

What about the Activity [24] of the same molecule?
The Activity was “Non-toxic”.

What about the Activity (HT-29 [25]) of the same molecule?
The Activity was “inactive”.
